Source: patent US10759774B2, “Inhibitors of hepatitis B virus targeting capsid assembly” (THE CURATORS OF THE UNIVERSITY OF MISSOURI, priority 2017, dated 2020)

Key:
HBV [1] = assay: Cell-based anti-HBV activity of HF9C6 analogs (Table 2; HBV DNA in HepAD38 cells); conditions: Hepatitis B virus
Description: (§1) HepAD38 cells (5×10^4) were plated in 96-well plates in tet media. The next day, cells were washed 2× with PBS, and the media was replaced with complete media (DMEM, 10% FBS) containing compounds. Fresh complete media with compounds was added again after 2 days. After 2 additional days, cells were washed with PBS, trypsinized, and pelleted by centrifugation. The cell pellet was resuspended in 200 μl PBS, and DNA was extracted and analyzed as above. For dose responses, values were plotted in GraphPad Prism 5 and analyzed with the log (inhibitor) vs. normalized response—variable slope equation.
HepAD38 cells were seeded in 96-well plates (3×10^4 cells/well) in tet media. […] After 2 days, the media was removed, and fresh media containing compounds was added. After 2 additional days, cells were washed with PBS and lysed with 10 mM Tris (pH 7.5), 1mM EDTA, 100mM NaCl, 1% NP-40 at 37° C. for 30 min. 60 μl of lysate was added to 60 μl of 1 M NaOH, 1.5 M NaCl and incubated at RT for 5 min to denature DNA. 120 μl of 1 M Tris (pH 7.4), 2 M NaCl was added. Samples were transferred to positively charged nylon membranes (Roche) using a vacuum dot blot manifold. The wells were washed with 200 μl of 20× SSC (3M NaCl, 300 mM sodium citrate), and the DNA was UV crosslinked to the membranes. […] Membranes were incubated with CDP-STAR® chemiluminescent substrate (Roche), imaged by chemiluminescence, and quantified by densitometry. Values were plotted in GraphPad Prism 5 and analyzed with the log (inhibitor) vs. normalized response—variable slope equation.

[2] = Cytotoxicity, Cell Proliferation Kit II (XTT) (Table 2); format: cell-based; conditions: human
Description: HepG2 cells were treated with compounds as in the antiviral screening above. At the end of treatment duration, cell viability was assessed with the Cell Proliferation Kit II (XTT) (Roche, Basel, Switzerland) according to the manufacturer's instructions. Values were plotted in GraphPad Prism 5 and analyzed with the log (inhibitor) vs. normalized response—variable slope equation.

HBV [3] = assay: Antiviral screening / dose response, total intracellular HBV DNA by qPCR in HepAD38 cells; format: cell-based, hepatitis B virus (HBV); conditions: Table 1
Description: HepAD38 cells (ATCC; Ladner, et al., Antimicrob. Agents Chemother. 41:1715-1720, 1997) were maintained in tet media [Dulbecco's Modified Eagle Medium (DMEM) and 10% fetal bovine serum (FBS) plus 0.4 μg/ml tetracycline (tet) and 400 μg/ml G418 (Gibco; Gaithersburg, Md.)]. Cells were incubated at 37° C. with 5% CO2.
Total DNA from HBV-infected cells was extracted using the QIAamp DNA Blood Mini Kit (Qiagen, Germantown, Md.). […] Amplification was conducted by denaturation at 95° C. for 10 min, followed by 40 cycles of denaturation at 95° C. for 15 s and annealing/extension at 60° C. for 1 min using PerfeCTa SYBR® Green FastMix reaction cocktail (Quanta Biosciences, Beverly, Mass.). Amplification was carried out in a PIKOREAL™ Real-Time PCR System. A standard curve was generated with dilutions of the HBV genome-containing plasmid pCMV-HBV-LE-II (Tavis, et al., PLoS Pathogens 9:e1003125, 2013).
as §1
For antiviral screening, HepAD38 cells were treated with 10 μM of each hit compound, and anti-HBV activity was determined by the level of viral DNA.

[4] = Cytotoxicity with the XTT assay (Table 1); conditions: human, HepAD38 cells
HBV wild-type (WT) Cp = assay: HBV core-associated DNA by qPCR in Huh7 cells transfected with wild-type plasmid; format: cell-based, hepatitis B virus (HBV); conditions: Bay 38-7690 500 nM, DVR-56 250 nM, ZW-935 250 nM, HF9C6 4 μM
HBV Cp I105V mutant = assay: HBV core-associated DNA by qPCR in Huh7 cells transfected with Cp mutant plasmid; format: cell-based, hepatitis B virus (HBV); conditions: single dose: DVR-56 250 nM, ZW-935 250 nM, HF9C6 4 μM
Description: (§2) The binding site for HAPs and SBAs has been found using X-ray crystallography and mutagenesis techniques. […] To probe this binding site, HBV-expressing plasmids with mutations in Cp (Y118F, T109S, T109M, T109I, I105V, I105L, and I105T) were generated (Klumpp, et al., Proc. Natl. Acad. Sci. USA 112:15196-15201, 2015).

HBV Cp T109I mutant = assay: as above; format: cell-based, hepatitis B virus (HBV); conditions: single dose: Bay 38-7690 500 nM, DVR-56 250 nM, ZW-935 250 nM, HF9C6 4 μM
Description: as §2

HBV Cp T109S mutant = assay: as above; format: cell-based, hepatitis B virus (HBV); conditions: single dose: Bay 38-7690 500 nM, DVR-56 250 nM, ZW-935 250 nM, HF9C6 4 μM
Description: as §2

HBV [5] = conditions: cited from earlier work
[6] = Table 2, cell-based, read-out: EC50

| Molecule | EC50 (HBV [1]; [6]) | other results |
| --- | --- | --- |
| COc1ccc(CNC(=O)c2c(N)sc(C(=O)Nc3ccccc3)c2C)cc1 [ZW-791, 5-Amino-N4-(4-methoxybenzyl)-3-methyl-N2-phenylthiophene-2,4-dicarboxamide] | > 10 µM |  |
| Cc1c(C(=O)Nc2ccc(F)c(F)c2)sc(N)c1C#N [ZW-1043, 5-Amino-4-cyano-N-(3,4-difluorophenyl)-3-methylthiophene-2-carboxamide] | ~10 µM | CC50 ([2]; HepG2 cells): > 100 µM |
| Cc1c(C(=O)Nc2ccccc2)sc(NC(=O)Cc2ccc(F)c(F)c2)c1C(N)=O [ZW-1050] | ~10 µM | CC50 ([2]; HepG2 cells): > 100 µM |
| Nc1ccn([C@@H]2CS[C@H](CO)O2)c(=O)n1 [Lamivudine (3TC), Lamivudine, reference compound] |  | SI (Selectivity Index) (HBV [3]; CC50/EC50): >1,111; EC50 (HBV [3]; Hepatitis B virus, HepAD38 cells, total intracellular HBV DNA as marker): 0.09 ± 0.01 µM; CC50 [4]: > 100 µM |
| Cc1ccc(NC(=O)c2sc(N)c(C(N)=O)c2C)cc1 [ZW-771, 5-Amino-3-methyl-N2-(p-tolyl)thiophene-2,4-dicarboxamide] | > 10 µM |  |
| Cc1c(C(=O)Nc2ccccc2)sc(N)c1C(=O)NC1CCCC1 [ZW-895, 5-Amino-N4-cyclopentyl-3-methyl-N2-phenylthiophene-2,4-dicarboxamide] | > 10 µM |  |
| Cc1cc(NC(=O)c2sc(N)c(C(N)=O)c2C)ccc1F [ZW-935, 5-Amino-N2-(4-fluoro-3-methylphenyl)-3-methylthiophene-2,4-dicarboxamide] |  | CC50 ([2]; HepG2 cells): > 100 µM; suppression of viral DNA production (HBV wild-type (WT) Cp): 75%; resistance profile, I105V mutant (HBV Cp I105V mutant): does not impart significant resistance; resistance profile, T109I mutant (HBV Cp T109I mutant): hypersusceptibility; resistance profile, T109S mutant (HBV Cp T109S mutant): resistance |
| CCOC(=O)c1sc2[nH]c(Cc3ccccc3)nc(=O)c2c1C [ZW-772, Ethyl 2-benzyl-5-methyl-4-oxo-1,4-dihydrothieno[2,3-d]pyrimidine-6-carboxylate] |  | EC50 (HBV [1]): > 10 µM |
| CCOC(=O)c1sc2[nH]c(C3CCCCC3)nc(=O)c2c1C [ZW-777, Ethyl 2-cyclohexyl-5-methyl-4-oxo-1,4-dihydrothieno[2,3-d]pyrimidine-6-carboxylate] | > 10 µM |  |
| CCOC(=O)c1sc2[nH]c(-c3ccc(C)c(F)c3)nc(=O)c2c1C [ZW-775, Ethyl 2-(3-fluoro-4-methylphenyl)-5-methyl-4-oxo-1,4-dihydrothieno[2,3-d]pyrimidine-6-carboxylate] | > 10 µM |  |
| CCOC(=O)c1sc2[nH]c(Cc3ccc(F)cc3)nc(=O)c2c1C [ZW-776, Ethyl 2-(4-fluorobenzyl)-5-methyl-4-oxo-1,4-dihydrothieno[2,3-d]pyrimidine-6-carboxylate] | > 10 µM |  |
| Cc1c(C(=O)Nc2ccc(F)c(F)c2)sc(N)c1C(=O)NC1CCCC1 [ZW-894, 5-Amino-N4-cyclopentyl-N2-(3,4-difluorophenyl)-3-methylthiophene-2,4-dicarboxamide] | > 10 µM |  |
| CCOC(=O)c1sc2[nH]c(Cc3ccc(-c4ccccc4)cc3)nc(=O)c2c1C [ZW-774, Ethyl 2-([1,1′-biphenyl]-4-ylmethyl)-5-methyl-4-oxo-1,4-dihydrothieno[2,3-d]pyrimidine-6-carboxylate] | > 10 µM |  |
| COc1ccc(NC(=O)c2sc(N)c(C(N)=O)c2C)cc1 [ZW-769, 5-Amino-N2-(4-methoxyphenyl)-3-methylthiophene-2,4-dicarboxamide] | ~10 µM |  |
| CCOC(=O)c1sc2[nH]c(Cc3cc(C)cc(C)c3)nc(=O)c2c1C [ZW-773, Ethyl 2-(3,5-dimethylbenzyl)-5-methyl-4-oxo-1,4-dihydrothieno[2,3-d]pyrimidine-6-carboxylate] | > 10 µM |  |
| Cc1c(C(=O)Nc2ccc(F)c(F)c2)sc(N)c1C(=O)Nc1ccc(Cl)cc1 [ZW-893, 5-Amino-N4-(4-chlorophenyl)-N2-(3,4-difluorophenyl)-3-methylthiophene-2,4-dicarboxamide] | > 10 µM |  |
| Cc1ccc(CC(=O)Nc2sc(C(=O)Nc3ccccc3)c(C)c2C(N)=O)cc1F [ZW-1051, 5-(2-(3-Fluoro-4-methylphenyl)acetamido)-3-methyl-N2-phenylthiophene-2,4-dicarboxamide] | > 10 µM | CC50 ([2]; HepG2 cells): > 100 µM |
| Cc1c(C(=O)NCc2ccccc2)sc(N)c1C(N)=O [ZW-770, 5-Amino-N2-benzyl-3-methylthiophene-2,4-dicarboxamide] | ~10 µM |  |
| Cc1c(C(=O)Nc2ccccc2)sc(N)c1C(=O)Nc1ccc(F)c(F)c1 [ZW-933, 5-Amino-N4-(3,4-difluorophenyl)-3-methyl-N2-phenylthiophene-2,4-dicarboxamide] |  | CC50 [2]: 40.5 ± 5.1 µM |
| Cc1c(C(=O)Nc2ccccc2)sc(N)c1C(=O)NCc1ccc(C(F)(F)F)cc1 [ZW-790, 5-Amino-3-methyl-N2-phenyl-N4-(4-(trifluoromethyl)benzyl)thiophene-2,4-dicarboxamide] | > 10 µM |  |
| Cc1c(C(=O)Nc2ccc(Cl)c(C(F)(F)F)c2)sc(N)c1C(N)=O [ZW-1067, 5-Amino-N2-(4-chloro-3-(trifluoromethyl)phenyl)-3-methylthiophene-2,4-dicarboxamide] |  | CC50 [2]: 72.1 ± 6.4 µM |
| Cc1cc(NC(=O)c2sc(N)c(C#N)c2C)ccc1F [ZW-1044, 5-Amino-4-cyano-N-(4-fluoro-3-methylphenyl)-3-methylthiophene-2-carboxamide] |  | CC50 [2]: 96.1 ± 10.1 µM |
| IFN-α |  | virological response, share of patients (HBV [5]): < 10% |
| Cc1c(C(=O)Nc2ccccc2)sc(N)c1C(=O)NC1CC1 [ZW-792, 5-Amino-N4-cyclopropyl-3-methyl-N2-phenylthiophene-2,4-dicarboxamide] | > 10 µM |  |
| Cc1c(C(=O)Nc2ccccc2)sc(NC(=O)c2ccc(S(C)(=O)=O)cc2)c1C(N)=O [ZW-1073, 3-Methyl-5-(4-(methylsulfonyl)benzamido)-N2-phenylthiophene-2,4-dicarboxamide] |  | CC50 ([2]; HepG2 cells): > 100 µM |
| CCOC(=O)c1c(N)sc(C(=O)Nc2ccccc2)c1C [ZW-1045, Ethyl 2-amino-4-methyl-5-(phenylcarbamoyl)thiophene-3-carboxylate] | > 10 µM | CC50 [2]: 75.9 ± 1.8 µM |
